Assay results published in article PMC7993140 (Medicinal chemistry research : an international journal for …, 2020).

Molecular target: T1, TDP2 (14M_zTDP2) (Danio rerio, UniProt Q5XJA0)
T1 sequence (Q5XJA0 121-369): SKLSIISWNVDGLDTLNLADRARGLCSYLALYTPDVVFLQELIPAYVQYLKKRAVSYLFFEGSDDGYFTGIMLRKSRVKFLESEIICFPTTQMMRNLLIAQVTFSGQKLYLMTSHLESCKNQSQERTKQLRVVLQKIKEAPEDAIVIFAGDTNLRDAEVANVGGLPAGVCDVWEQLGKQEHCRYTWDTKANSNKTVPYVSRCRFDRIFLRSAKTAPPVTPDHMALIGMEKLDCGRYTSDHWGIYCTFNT
Experiment: 14M_zTDP2 fluorescence-based biochemical assay
Details: at concentrations up to 50 μM

Row | TDP2 inhibition at 50 μM | Structure (SMILES)
1 | no inhibition | O=C1NC(=O)c2ccccc2/C1=C/NCc1ccc(O)cc1 [11b, (Z)-4-(((4-hydroxybenzyl)amino)methylene)isoquinoline-1,3(2H,4H)-dione]
2 | no activity | O=C1NC(=O)c2ccccc2C1=Cc1ccc[nH]1 [12d, 4-((1H-pyrrol-2-yl)methylene)isoquinoline-1,3(2H,4H)-dione]
3 | no activity | Cn1cccc1C=C1C(=O)NC(=O)c2ccccc21 [12e, 4-((1-methyl-1H-pyrrol-2-yl)methylene)isoquinoline-1,3(2H,4H)-dione]
4 | no activity | O=C1NC(=O)c2ccccc2C1=Cc1cccs1 [12f, 4-(thiophen-2-ylmethylene)isoquinoline-1,3(2H,4H)-dione]
5 | no activity | O=C1NC(=O)c2ccccc2C1=Cc1ccsc1 [12g, 4-(thiophen-3-ylmethylene)isoquinoline-1,3(2H,4H)-dione]

Same assay, conditions: no concentration stated at the place

Row | TDP2 inhibition | Structure (SMILES)
6 | reasonable potency | O=C1NC(=O)c2ccccc2C1=Cc1ccncc1 [12c, 4-(pyridin-4-ylmethylene)isoquinoline-1,3(2H,4H)-dione]

Same assay, conditions: read-out: IC50 (TDP2 inhibition); in-house fluorescence-based biochemical assay; 25 °C, 60 min

Row | Structure (SMILES) | IC50
7 | O=C1NC(=O)c2ccccc2C1=Cc1ccc2[nH]ncc2c1 [12h, 4-((1H-indazol-5-yl)methylene)isoquinoline-1,3(2H,4H)-dione] | 19 µM
8 | O=C1NC(=O)c2ccccc2C1=Cc1ccc(O)cc1 [12k, 4-(4-hydroxybenzylidene)isoquinoline-1,3(2H,4H)-dione] | 10 µM
9 | O=C1NC(=O)c2ccccc2C1=Cc1ccc(C(=O)O)cc1 [12q, 4-((1,3-dioxo-2,3-dihydroisoquinolin-4(1H)-ylidene)methyl)benzoic acid] | 4.8 µM

Next, values leading:

Row | IC50 | Structure (SMILES)
10 | 13 µM | O=C1NC(=O)c2ccccc2C1=Cc1ccc2[nH]ccc2c1 [12i, 4-((1H-indol-5-yl)methylene)isoquinoline-1,3(2H,4H)-dione]
11 | 22 µM | O=C1Cc2ccccc2C(=O)N1 [compound 8, isoquinoline-1,3-dione, reference compound]

System: TDP2
Experiment: not given
Details: read-out: previously reported IC50; previously reported value; cited from earlier work

Row | Structure (SMILES) | IC50
12 | O=C1Cc2ccccc2C(=O)N1 [compound 8, isoquinoline-1,3-dione, reference compound] | 25 µM
